Legend:
Candidal vaginitis = assay: Therapeutic effect of gel compositions on Candidal vaginitis (clinical cases); type: in vivo, patients; conditions: cases/cases of group
From the text: 1. Experimental Object: observing the therapeutic effect of the compositions comprising the combination of sodium benzoate with sodium propionate or sorbic acid. Unless otherwise illustrated, the solutions in the experiments are all aqueous solutions.
• Group I: 0.125% (w/v) sodium propionate; • Group II: i.e., the composition of Example 9 comprising 0.1% (w/v) sodium benzoate+0.125% (w/v) sodium propionate; • Group III: 0.0125% (w/v) sorbic acid; • Group IV: i.e., the composition of Example 7 comprising 0.1% (w/v) sodium benzoate+0.0125% (w/v) sorbic acid; • Group V: 0.1% (w/v) sodium benzoate; • Group VI: i.e., the composition of Example 5 comprising 0.1% sodium benzoate+0.0125% sodium dehydroacetate. 3. Experimental cases: cases of Candidal vaginitis, 20 cases per group, enrolling according to following criteria: recurrent symptoms such as vulvovaginal pruritus and vulvovaginal burning pain, and increased leucorrhea, optionally with white bean curd slag-like clots, pH value of vaginal secretion <4.5, vaginal bacteria were dominated by large Gram-positive rods, and Candida spores and/or hypha were found. 4. […] 5. […] 6. Observed results: observing the changes in vulvovaginal pruritus, vulvovaginal burning pain and leucorrhea nature, the pH value of vaginal secretion, observing the Nugent scores of the vaginal flora, whether Candida grew or not. 7. […] 8.

[1] = system: Candida strains (clinical isolates from patients suffering from Candidal vaginitis); assay: Inhibition of Candida growth in broth pH 4.5 (turbidity after 72 hours); type: cell-based
From the text: 1. […] Unless otherwise illustrated, the solutions in the experiments are all aqueous solutions. 2. Experimental Method: (1) Experimental Materials:
a) Experimental strains: 11 Candida strains, all of which were screened from the clinical isolates from patients suffering from Candidal vaginitis, and were capable of growing in broth comprising 0.025% (w/v) sodium benzoate.
b) Broth: 1% yeast extract powder, 9% sucrose, 0.025% Manganese sulfate (MnSO4.4H2O), 0.058% Magnesium sulphate (MgSO4.7H2O), and 0.9% lactic acid, wherein the pH value was adjusted to 4.5 and the broth was sterilized for use;
(2) Experimental Grouping:
The requirements for aseptic technique were strictly followed to prepare the following groups of sterile test tubes: • a) sodium benzoate group: a test tube containing 5 ml broth, to which 0.025% (w/v) sodium benzoate was added; • b) sodium benzoate+sodium dehydroacetate group: 6 test tubes each containing 5 ml broth, wherein 0.0025% (w/v), 0.005% (w/v), and 0.01% (w/v) sodium dehydroacetate were added to three tubes, respectively; 0.025% (w/v) sodium benzoate was added to each of the rest 3 tubes, and then 0.0025% (w/v), 0.005% (w/v), 0.01% (w/v) sodium dehydroacetate were added to them, respectively; • c) sodium benzoate+sodium propionate group: 6 test tubes each containing 5 ml broth, wherein 0.0625% (w/v), 0.125% (w/v), and 0.25% (w/v) sodium propionate were added to three tubes, respectively; 0.025% (w/v) sodium benzoate was added to each of the rest 3 tubes, and then 0.0625% (w/v), 0.125% (w/v), and 0.25% (w/v) sodium propionate were added to them, respectively; • d) sodium benzoate+potassium sorbate group: 6 test tubes each containing 5 ml broth, wherein 0.00625% (w/v), 0.0125% (w/v), and 0.025% (w/v) potassium sorbate were added to 3 tubes, respectively; 0.025% (w/v) sodium benzoate was added to each of the rest 3 tubes, and then 0.00625% (w/v), 0.0125% (w/v), and 0.025% (w/v) potassium sorbate were added to them, respectively; • e) sodium benzoate+Ethylparaben: 6 test tubes each containing 5 ml broth, wherein 0.0125% (w/v), 0.025% (w/v), and 0.05% (w/v) Ethylparaben were added to 3 tubes, respectively; 0.025% (w/v) sodium benzoate was added to each of the rest 3 tubes, and then 0.0125% (w/v), 0.025% (w/v), and 0.05% (w/v) Ethylparaben were added to them, respectively; • f) Positive control: a broth-containing test tube with Candida but without sodium benzoate, sodium dehydroacetate, sodium propionate, sorbic acid, or Ethylparaben. • g) Negative control: a broth-containing test tube without Candida, sodium benzoate, sodium dehydroacetate, sodium propionate, sorbic acid, or Ethylparaben; (3) Experimental Methods:
The Candidal suspensions were prepared under stringent aseptic manipulation techniques. The colonies of various Candidal strains were diluted with saline, respectively. The turbidity was adjusted with a turbiditor to 0.5M (about 10^8CFU/ml), and then 1 ml 0.5M bacterial solution was added to 9 ml broth and was 10 times diluted, so that each Candidal suspension comprised Candidal organisms at 10^7CFU/ml.
Under stringent aseptic manipulation techniques, 100 μl bacterial solution thus prepared was added to each of the aforesaid a˜f test tubes and the positive control tube, and no bacterial solution was added to the negative control tube g.
These tubes were incubated in a biochemical incubator at 37.5° C. for 72 hours. The turbidity of the test tubes were observed and recorded.

`O=C([O-])c1ccccc1.[Na+]` [0.1% sodium benzoate, sodium benzoate] was tested, and the “Candida (detection rate)” value (Candidal vaginitis; Day 1) was 15/20, the “pH 3.8~4.1 (vaginal secretion)” value (Candidal vaginitis; Day 1) was 12/20 and the “pH 4.2~4.5 (vaginal secretion)” value (Candidal vaginitis; Day 1) was 6/20. For the same molecule, the “pH <3.8 (vaginal secretion)” value (Candidal vaginitis; Day 1) was 2/20, the symptom alleviated/eliminated (Candidal vaginitis; Day 1) was 7/20 and the “Candida (detection rate)” value (Candidal vaginitis; Day 2) was 13/20. For the same molecule, the “pH 3.8~4.1 (vaginal secretion)” value (Candidal vaginitis; Day 2) was 10/20, the “pH 4.2~4.5 (vaginal secretion)” value (Candidal vaginitis; Day 2) was 9/20 and the “pH <3.8 (vaginal secretion)” value (Candidal vaginitis; Day 2) was 1/20. The symptom alleviated/eliminated (Candidal vaginitis; Day 2) was 9/20, the “Candida (detection rate)” value (Candidal vaginitis; Day 3) was 9/20 and the “pH 3.8~4.1 (vaginal secretion)” value (Candidal vaginitis; Day 3) was 9/20. The “pH 4.2~4.5 (vaginal secretion)” value (Candidal vaginitis; Day 3) was 9/20, the “pH <3.8 (vaginal secretion)” value (Candidal vaginitis; Day 3) was 2/20 and the symptom alleviated/eliminated (Candidal vaginitis; Day 3) was 14/20. The “Candida (detection rate)” value (Candidal vaginitis; Day 4) was 5/20, the “pH 3.8~4.1 (vaginal secretion)” value (Candidal vaginitis; Day 4) was 10/20 and the “pH 4.2~4.5 (vaginal secretion)” value (Candidal vaginitis; Day 4) was 9/20. The “pH <3.8 (vaginal secretion)” value (Candidal vaginitis; Day 4) was 1/20, the symptom alleviated/eliminated (Candidal vaginitis; Day 4) was 15/20 and the “Candida (detection rate)” value (Candidal vaginitis; Day 5) was 6/20. The “pH 3.8~4.1 (vaginal secretion)” value (Candidal vaginitis; Day 5) was 9/20, the “pH 4.2~4.5 (vaginal secretion)” value (Candidal vaginitis; Day 5) was 10/20 and the “pH <3.8 (vaginal secretion)” value (Candidal vaginitis; Day 5) was 1/20. For the same molecule, the symptom alleviated/eliminated (Candidal vaginitis; Day 5) was 15/20, the “Candida (detection rate)” value (Candidal vaginitis; before administration) was 20/20 and the “pH 3.8~4.1 (vaginal secretion)” value (Candidal vaginitis; before administration) was 10/20. The “pH 4.2~4.5 (vaginal secretion)” value (Candidal vaginitis; before administration) was 4/20, the “pH <3.8 (vaginal secretion)” value (Candidal vaginitis; before administration) was 6/20 and the symptom alleviated/eliminated (Candidal vaginitis; before administration) was 0/20.
For `CCC(=O)[O-].[Na+]` [0.125% sodium propionate, sodium propionate], the “Candida growth, Strain 1” value ([1]; Strain 1, 37.5° C.) was “+”, the “Candida growth, Strain 2” value ([1]; Strain 2, 37.5° C.) was “+” and the “Candida growth, Strain 3” value ([1]; Strain 3, 37.5° C.) was “+”. For the same molecule, the “Candida growth, Strain 4” value ([1]; Strain 4, 37.5° C.) was “+”, the “Candida growth, Strain 5” value ([1]; Strain 5, 37.5° C.) was “−” and the “Candida growth, Strain 6” value ([1]; Strain 6, 37.5° C.) was “+”. For the same molecule, the “Candida growth, Strain 7” value ([1]; Strain 7, 37.5° C.) was “+”, the “Candida growth, Strain 8” value ([1]; Strain 8, 37.5° C.) was “+” and the “Candida growth, Strain 9” value ([1]; Strain 9, 37.5° C.) was “−”. The “Candida growth, Strain 10” value ([1]; Strain 10, 37.5° C.) was “+”, the “Candida growth, Strain 11” value ([1]; Strain 11, 37.5° C.) was “−” and the “Candida (detection rate)” value (Candidal vaginitis; Day 1) was 16/20. For the same molecule, the “pH 3.8~4.1 (vaginal secretion)” value (Candidal vaginitis; Day 1) was 12/20, the “pH 4.2~4.5 (vaginal secretion)” value (Candidal vaginitis; Day 1) was 5/20 and the “pH <3.8 (vaginal secretion)” value (Candidal vaginitis; Day 1) was 3/20. For the same molecule, the symptom alleviated/eliminated (Candidal vaginitis; Day 1) was 7/20, the “Candida (detection rate)” value (Candidal vaginitis; Day 2) was 13/20 and the “pH 3.8~4.1 (vaginal secretion)” value (Candidal vaginitis; Day 2) was 11/20. For the same molecule, the “pH 4.2~4.5 (vaginal secretion)” value (Candidal vaginitis; Day 2) was 6/20, the “pH <3.8 (vaginal secretion)” value (Candidal vaginitis; Day 2) was 3/20 and the symptom alleviated/eliminated (Candidal vaginitis; Day 2) was 9/20. The “Candida (detection rate)” value (Candidal vaginitis; Day 3) was 10/20, the “pH 3.8~4.1 (vaginal secretion)” value (Candidal vaginitis; Day 3) was 9/20 and the “pH 4.2~4.5 (vaginal secretion)” value (Candidal vaginitis; Day 3) was 9/20. For the same molecule, the “pH <3.8 (vaginal secretion)” value (Candidal vaginitis; Day 3) was 2/20, the symptom alleviated/eliminated (Candidal vaginitis; Day 3) was 14/20 and the “Candida (detection rate)” value (Candidal vaginitis; Day 4) was 12/20. For the same molecule, the “pH 3.8~4.1 (vaginal secretion)” value (Candidal vaginitis; Day 4) was 10/20, the “pH 4.2~4.5 (vaginal secretion)” value (Candidal vaginitis; Day 4) was 9/20 and the “pH <3.8 (vaginal secretion)” value (Candidal vaginitis; Day 4) was 1/20. The symptom alleviated/eliminated (Candidal vaginitis; Day 4) was 13/20, the “Candida (detection rate)” value (Candidal vaginitis; Day 5) was 11/20 and the “pH 3.8~4.1 (vaginal secretion)” value (Candidal vaginitis; Day 5) was 10/20. The “pH 4.2~4.5 (vaginal secretion)” value (Candidal vaginitis; Day 5) was 8/20, the “pH <3.8 (vaginal secretion)” value (Candidal vaginitis; Day 5) was 2/20 and the symptom alleviated/eliminated (Candidal vaginitis; Day 5) was 13/20. The “Candida (detection rate)” value (Candidal vaginitis; before administration) was 20/20, the “pH 3.8~4.1 (vaginal secretion)” value (Candidal vaginitis; before administration) was 9/20 and the “pH 4.2~4.5 (vaginal secretion)” value (Candidal vaginitis; before administration) was 5/20. The “pH <3.8 (vaginal secretion)” value (Candidal vaginitis; before administration) was 6/20 and the symptom alleviated/eliminated (Candidal vaginitis; before administration) was 0/20.
For `C/C=C/C=C/C(=O)O` [0.0125% sorbic acid, sorbic acid], the “Candida (detection rate)” value (Candidal vaginitis; Day 1) was 15/20, the “pH 3.8~4.1 (vaginal secretion)” value (Candidal vaginitis; Day 1) was 13/20 and the “pH 4.2~4.5 (vaginal secretion)” value (Candidal vaginitis; Day 1) was 6/20. The “pH <3.8 (vaginal secretion)” value (Candidal vaginitis; Day 1) was 1/20, the symptom alleviated/eliminated (Candidal vaginitis; Day 1) was 6/20 and the “Candida (detection rate)” value (Candidal vaginitis; Day 2) was 15/20. The “pH 3.8~4.1 (vaginal secretion)” value (Candidal vaginitis; Day 2) was 11/20, the “pH 4.2~4.5 (vaginal secretion)” value (Candidal vaginitis; Day 2) was 7/20 and the “pH <3.8 (vaginal secretion)” value (Candidal vaginitis; Day 2) was 2/20. The symptom alleviated/eliminated (Candidal vaginitis; Day 2) was 12/20, the “Candida (detection rate)” value (Candidal vaginitis; Day 3) was 13/20 and the “pH 3.8~4.1 (vaginal secretion)” value (Candidal vaginitis; Day 3) was 10/20. For the same molecule, the “pH 4.2~4.5 (vaginal secretion)” value (Candidal vaginitis; Day 3) was 8/20, the “pH <3.8 (vaginal secretion)” value (Candidal vaginitis; Day 3) was 2/20 and the symptom alleviated/eliminated (Candidal vaginitis; Day 3) was 11/20. The “Candida (detection rate)” value (Candidal vaginitis; Day 4) was 14/20, the “pH 3.8~4.1 (vaginal secretion)” value (Candidal vaginitis; Day 4) was 11/20 and the “pH 4.2~4.5 (vaginal secretion)” value (Candidal vaginitis; Day 4) was 8/20. For the same molecule, the “pH <3.8 (vaginal secretion)” value (Candidal vaginitis; Day 4) was 1/20, the symptom alleviated/eliminated (Candidal vaginitis; Day 4) was 13/20 and the “Candida (detection rate)” value (Candidal vaginitis; Day 5) was 13/20. The “pH 3.8~4.1 (vaginal secretion)” value (Candidal vaginitis; Day 5) was 11/20, the “pH 4.2~4.5 (vaginal secretion)” value (Candidal vaginitis; Day 5) was 7/20 and the “pH <3.8 (vaginal secretion)” value (Candidal vaginitis; Day 5) was 2/20. For the same molecule, the symptom alleviated/eliminated (Candidal vaginitis; Day 5) was 12/20, the “Candida (detection rate)” value (Candidal vaginitis; before administration) was 20/20 and the “pH 3.8~4.1 (vaginal secretion)” value (Candidal vaginitis; before administration) was 9/20. For the same molecule, the “pH 4.2~4.5 (vaginal secretion)” value (Candidal vaginitis; before administration) was 6/20, the “pH <3.8 (vaginal secretion)” value (Candidal vaginitis; before administration) was 5/20 and the symptom alleviated/eliminated (Candidal vaginitis; before administration) was 0/20.

— patent publication US8765819B2, “Composition comprising benzoic acid in combination with organic acid preservatives as active ingredients and the use thereof” (priority 2009, dated 2014)
